In ChEMBL document CHEMBL5505987 (Eur J Med Chem, 2024):

Assays:
Assay type in all cases: functional, cell-based
[1] = system: MDA-MB-231; assay: Cytotoxicity against human MDA-MB-231 cells assessed as cell viability by MTT assay
[2] = system: MCF7; assay: Cytotoxicity against human MCF7 cells assessed as cell viability by MTT assay
[3] = system: HeLa; assay: Cytotoxicity against human HeLa cells assessed as cell viability by MTT assay
[4] = system: A549; assay: Cytotoxicity against human A549 cells assessed as cell viability by MTT assay

Q: With `O=C1C[C@@H](c2ccccc2)Oc2cc(O)c([C@@H](/C=C/C[C@@H](O)CCc3ccccc3)c3ccccc3)c(O)c21` as the compound, how does the IC50 [1] read?
A: The IC50 was 1480 nM.

Q: And the IC50 [2]?
A: The IC50 was 4160 nM.

Q: What about the IC50 [3] of the same compound?
A: The IC50 was 670 nM.

Q: And the IC50 [4]?
A: The IC50 was 3270 nM.
